Reference: BindingDB's records for doi:10.1016/s0028-3908(00)00128-3 (University of Toronto, 2001)

molecular target: Metabotropic glutamate receptor 8 (Rattus norvegicus, UniProt P70579)
Sequence (P70579 whole entry): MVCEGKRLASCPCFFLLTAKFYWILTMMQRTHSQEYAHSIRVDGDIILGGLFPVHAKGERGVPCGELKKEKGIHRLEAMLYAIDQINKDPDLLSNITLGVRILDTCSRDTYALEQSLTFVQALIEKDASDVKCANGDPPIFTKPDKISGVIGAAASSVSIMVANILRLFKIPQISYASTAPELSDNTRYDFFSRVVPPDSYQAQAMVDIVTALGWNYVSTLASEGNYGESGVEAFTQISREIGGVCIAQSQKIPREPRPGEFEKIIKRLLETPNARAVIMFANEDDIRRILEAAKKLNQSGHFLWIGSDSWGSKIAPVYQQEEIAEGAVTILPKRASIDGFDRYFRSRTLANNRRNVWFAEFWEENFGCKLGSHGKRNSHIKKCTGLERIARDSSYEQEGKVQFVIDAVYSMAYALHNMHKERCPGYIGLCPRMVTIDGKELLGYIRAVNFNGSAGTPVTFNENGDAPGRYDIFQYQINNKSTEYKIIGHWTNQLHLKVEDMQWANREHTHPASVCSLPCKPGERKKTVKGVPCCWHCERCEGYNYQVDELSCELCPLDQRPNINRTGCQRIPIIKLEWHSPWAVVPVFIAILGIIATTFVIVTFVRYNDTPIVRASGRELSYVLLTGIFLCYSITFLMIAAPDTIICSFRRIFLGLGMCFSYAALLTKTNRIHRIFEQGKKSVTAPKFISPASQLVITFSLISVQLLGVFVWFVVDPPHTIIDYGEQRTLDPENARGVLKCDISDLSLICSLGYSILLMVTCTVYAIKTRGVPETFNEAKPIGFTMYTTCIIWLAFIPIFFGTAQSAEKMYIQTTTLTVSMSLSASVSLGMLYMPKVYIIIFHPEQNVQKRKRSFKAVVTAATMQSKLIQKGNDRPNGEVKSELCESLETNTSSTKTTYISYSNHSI

| Compound | Ki |
| --- | --- |
| NC(CCC(=O)O)C(=O)O (configuration not stated) [glutamic acid dianion] | > 10000 nM |
| CC(N)(C(=O)O)c1ccc(P(=O)(O)O)cc1 (configuration not stated) | 480 nM |
| N[C@@H](CCP(=O)(O)O)C(=O)O [2-Amino-4-phosphono-butyric acid] | 2700 nM |
| N[C@@H](COP(=O)(O)O)C(=O)O | 1200 nM |
| NC(C(=O)O)c1ccc(P(=O)(O)O)cc1 (configuration not stated) [Amino-(4-phosphono-phenyl)-acetic acid(RS-PPG)] | 1300 nM |
| N[C@H](CCP(=O)(O)O)C(=O)O [D-AP4] | > 10000 nM |
| C[C@@](N)(C(=O)O)c1ccc(C(=O)O)cc1 (racemic) | > 10000 nM |
